Data published in article PMC4153658, “A Pentasymmetric Open Channel Blocker for Cys-Loop Receptor Channels” (PLoS ONE, 2014).
“And” between values parts separate entries of the source, which are not always exact repeats. Equal values may be shown once. Read-outs that look alike come from different tables or passages of the source.

What was measured:
[1] = molecular target: T1, α1β2γ2 rat GABAA receptors (Rattus norvegicus, UniProt P18508+P62813+P63138); type: cell-based; conditions: for IC50: GABA EC10
T1 construct: expressed in transfected cells; host or cells: Xenopus laevis oocytes, cRNA injection
Experimental: (§1) Capped cRNAs were synthesized from the linearized plasmids. A poly-A tail of about 400 residues was added to each transcript using yeast poly-A polymerase. The concentration of the cRNA was quantified on a formaldehyde gel using Radiant Red stain for visualization of the RNA. Known concentrations of RNA ladder were loaded as standard on the same gel. cRNAs were precipitated in ethanol/isoamylalcohol 19∶1, the dried pellet dissolved in water and stored at −80°C. Xenopus oocytes were prepared, injected and defollicated as described previously (Research approved by the Kantonstierarzt, Kantonaler Veterinärdienst Bern (Animal research permit BE98/12)). Briefly, Xenopus laevis oocytes were injected with 50 nL of the cRNA solution containing wild type or mutated α1, β2 and γ2 subunits at a concentration of 10 nM: 10 nM: 50 nM and then incubated in modified Barth's solution at 18°C for at least 24 h before the measurements. […] Currents were measured using a home-built two-electrode voltage clamp amplifier in combination with a XY-recorder or digitized using a PowerLab 2/20 (AD Instruments) using the computer program Chart. Tests with a model oocyte were performed to ensure linearity in the larger current range. […] Similar experiments were performed with picrotoxin. Due to the difficulty of washing out picrotoxin out from the oocytes two different oocytes were used to test the inhibition before and after the treatment with the cysteine reactive compound. Inhibition after treatment was divided by % inhibition before treatment. To test the ability of PCCP^− to protect the engineered cysteines from covalent modification by MTSET^+, we used the same sequence of perfusion except that MTSET^+ was co-applied with 1 mM PCCP^−. Results were obtained on 3–4 single oocytes for each receptor.

[2] = molecular target: T2, α1A253Cβ2γ2 GABAA receptor (Rattus norvegicus, UniProt P18508+P62813+P63138, A280C); assay: Two-electrode voltage clamp, mutant α1A253Cβ2γ2 in Xenopus oocytes; type: cell-based; conditions: read-out: IC50 mean ± SD for inhibition of GABA-activated current
T2 construct: expressed in transfected cells; host or cells: Xenopus laevis oocytes, cRNA injection
Experimental: as §1, with “Due to the difficulty of washing out picrotoxin out from the oocytes two different oocytes were used to test the inhibition before and after the treatment with the cysteine reactive compound. Inhibition after treatment was divided by % inhibition before treatment. To test the ability of PCCP^− to protect the engineered cysteines from covalent modification by MTSET^+, we used the same sequence of perfusion except that MTSET^+ was co-applied with 1 mM PCCP^−. Results were obtained on 3–4 single oocytes for each receptor.” left out

[3] = molecular target: T3, α1V256Cβ2γ2 GABAA receptor (Rattus norvegicus, UniProt P18508+P62813+P63138, V283C); assay: Two-electrode voltage clamp, mutant α1V256Cβ2γ2 in Xenopus oocytes; type: cell-based; conditions: for IC50: read-out: IC50 mean ± SD for inhibition of GABA-activated current
T3 construct: expressed in transfected cells; host or cells: Xenopus laevis oocytes, cRNA injection
Experimental: as §1

[4] = molecular target: T4, α1T260Cβ2γ2 GABAA receptor (Rattus norvegicus, UniProt P18508+P62813+P63138, T287C); type: cell-based; conditions: read-out: IC50 mean ± SD for inhibition of GABA-activated current
T4 construct: expressed in transfected cells; host or cells: Xenopus laevis oocytes, cRNA injection
Experimental: as §1

[5] = tested on: α1T260Cβ2γ2 GABAA receptor; type: cell-based, rat
Experimental: as §1

[6] = molecular target: T5, α1T261Cβ2γ2 GABAA receptor (Rattus norvegicus, UniProt P18508+P62813+P63138, T288C); assay: Two-electrode voltage clamp, mutant α1T261Cβ2γ2 in Xenopus oocytes; type: cell-based; conditions: read-out: IC50 mean ± SD for inhibition of GABA-activated current
T5 construct: expressed in transfected cells; host or cells: Xenopus laevis oocytes, cRNA injection
Experimental: as §1, with “Due to the difficulty of washing out picrotoxin out from the oocytes two different oocytes were used to test the inhibition before and after the treatment with the cysteine reactive compound. Inhibition after treatment was divided by % inhibition before treatment. To test the ability of PCCP^− to protect the engineered cysteines from covalent modification by MTSET^+, we used the same sequence of perfusion except that MTSET^+ was co-applied with 1 mM PCCP^−. Results were obtained on 3–4 single oocytes for each receptor.” left out

[7] = molecular target: T6, α1L263Cβ2γ2 GABAA receptor (Rattus norvegicus, UniProt P18508+P62813+P63138, L290C); assay: Two-electrode voltage clamp, mutant α1L263Cβ2γ2 in Xenopus oocytes; type: cell-based
T6 construct: expressed in transfected cells; host or cells: Xenopus laevis oocytes, cRNA injection
Experimental: as §1, with “Due to the difficulty of washing out picrotoxin out from the oocytes two different oocytes were used to test the inhibition before and after the treatment with the cysteine reactive compound. Inhibition after treatment was divided by % inhibition before treatment. To test the ability of PCCP^− to protect the engineered cysteines from covalent modification by MTSET^+, we used the same sequence of perfusion except that MTSET^+ was co-applied with 1 mM PCCP^−. Results were obtained on 3–4 single oocytes for each receptor.” left out

[8] = molecular target: T7, α1T264Cβ2γ2 GABAA receptor (Rattus norvegicus, UniProt P18508+P62813+P63138, T291C); assay: Two-electrode voltage clamp, mutant α1T264Cβ2γ2 in Xenopus oocytes; type: cell-based
T7 construct: expressed in transfected cells; host or cells: Xenopus laevis oocytes, cRNA injection
Experimental: as §1, with “Due to the difficulty of washing out picrotoxin out from the oocytes two different oocytes were used to test the inhibition before and after the treatment with the cysteine reactive compound. Inhibition after treatment was divided by % inhibition before treatment. To test the ability of PCCP^− to protect the engineered cysteines from covalent modification by MTSET^+, we used the same sequence of perfusion except that MTSET^+ was co-applied with 1 mM PCCP^−. Results were obtained on 3–4 single oocytes for each receptor.” left out

[9] = molecular target: T8, α1T267Cβ2γ2 GABAA receptor (Rattus norvegicus, UniProt P18508+P62813+P63138, T294C); assay: Two-electrode voltage clamp, mutant α1T267Cβ2γ2 in Xenopus oocytes; type: cell-based
T8 construct: expressed in transfected cells; host or cells: Xenopus laevis oocytes, cRNA injection
Experimental: as §1, with “Due to the difficulty of washing out picrotoxin out from the oocytes two different oocytes were used to test the inhibition before and after the treatment with the cysteine reactive compound. Inhibition after treatment was divided by % inhibition before treatment. To test the ability of PCCP^− to protect the engineered cysteines from covalent modification by MTSET^+, we used the same sequence of perfusion except that MTSET^+ was co-applied with 1 mM PCCP^−. Results were obtained on 3–4 single oocytes for each receptor.” left out

[10] = molecular target: T9, α1β2γ2 rat GABAA receptors (Rattus norvegicus); assay: Concentration inhibition curve, first receptor named in b22 / Figure 4A; type: cell-based; conditions: GABA EC10; n = 4; receptor printed as α1β2γ2
T9 construct: expressed in transfected cells; host or cells: Xenopus laevis oocytes, cRNA injection
Experimental: as §1, with “Due to the difficulty of washing out picrotoxin out from the oocytes two different oocytes were used to test the inhibition before and after the treatment with the cysteine reactive compound. Inhibition after treatment was divided by % inhibition before treatment. To test the ability of PCCP^− to protect the engineered cysteines from covalent modification by MTSET^+, we used the same sequence of perfusion except that MTSET^+ was co-applied with 1 mM PCCP^−. Results were obtained on 3–4 single oocytes for each receptor.” left out

[11] = molecular target: T10, α1β2δ rat GABAA receptors (Rattus norvegicus, UniProt P18506+P62813+P63138); assay: Concentration inhibition curve, α1β2δ GABAA receptors in Xenopus oocytes; type: cell-based; conditions: GABA EC10; n = 4
T10 construct: expressed in transfected cells; host or cells: Xenopus laevis oocytes, cRNA injection

[12] = tested on: Glycine homomeric receptors; assay: Inhibition of homomeric glycine receptors expressed in Xenopus oocytes; type: cell-based; conditions: compared with GABAA receptors
[13] = tested on: Glycine heteromeric receptors; assay: Inhibition of heteromeric glycine receptors expressed in Xenopus oocytes; type: cell-based; conditions: compared with GABAA receptors
[14] = molecular target: ELIC (Dickeya chrysanthemi, UniProt P0C7B7); conditions: read-out: Concentration required for half-maximal inhibition
Experimental: as §1, with “Due to the difficulty of washing out picrotoxin out from the oocytes two different oocytes were used to test the inhibition before and after the treatment with the cysteine reactive compound. Inhibition after treatment was divided by % inhibition before treatment. To test the ability of PCCP^− to protect the engineered cysteines from covalent modification by MTSET^+, we used the same sequence of perfusion except that MTSET^+ was co-applied with 1 mM PCCP^−. Results were obtained on 3–4 single oocytes for each receptor.” left out

[15] = tested on: RDL Drosophila GABAA receptors, mutation A302S versus wild type; assay: Concentration inhibition curves in wild type and mutant RDL Drosophila GABAA receptor; type: cell-based; conditions: GABA EC10
[16] = tested on: non-injected oocytes; assay: Currents induced in non-injected Xenopus oocytes; type: cell-based, Xenopus laevis; conditions: holding potential −80 mV
[17] = tested on: cysteine mutant α1β2γ2 GABAA receptors; assay: Protection of engineered cysteines from covalent modification by MTSET^+ + GABA; type: cell-based, rat; conditions: 1 mM inhibitor present during MTSET^+ + GABA application
Experimental: as §1, with “Due to the difficulty of washing out picrotoxin out from the oocytes two different oocytes were used to test the inhibition before and after the treatment with the cysteine reactive compound. Inhibition after treatment was divided by % inhibition before treatment. To test the ability of PCCP^− to protect the engineered cysteines from covalent modification by MTSET^+, we used the same sequence of perfusion except that MTSET^+ was co-applied with 1 mM PCCP^−. Results were obtained on 3–4 single oocytes for each receptor.” left out

[18] = wild type, end of 1 min co-application, −80 mV, read-out: IC50 mean ± SD for inhibition of GABA-activated current
[19] = read-out: IC50 mean ± SD for inhibition of GABA-activated current

C[N+](C)(C)CCSS(C)(=O)=O [MTSET^+, reference compound]
Effect of treatment with cysteine reactive compound on wild type receptors ([1]; wild type, preliminary experiments): unaffected

N#CC1=C(C#N)C(C#N)C(C#N)=C1C#N [PCCP^−, pentacyanocyclopentdienyl anion]
Concentrations inducing an open-channel block ([1]; GABA EC1, apparent desensitization and off-current): > 1 µM | Inhibition of recombinant α1β2γ2 GABAA receptors, preliminary evaluation ([1]; compounds 1–4 tested): highly active | Concentrations at which currents were stimulated ([1]; currents elicited by low GABA (EC1), highly variable between oocytes): 0.3 to 10 µM | δ, fraction of the voltage field sensed by the blocker from the outside of the membrane ([1]; estimated with Woodhull equation from IC50 at −120, −80, −40 mV): ~0.7 | IC50 ([1]; membrane potential −40 mV, n = 3, read-out: IC50): 1800 ± 800 nM | IC50 ([1]; membrane potential −80 mV, voltage-dependence experiment, n = 3, read-out: IC50): 6300 ± 1300 nM | IC50 ([1]; membrane potential −120 mV, n = 3, read-out: IC50): 16200 ± 1300 nM | Shift of the GABA concentration response curve ([1]; presence of 2 µM or 10 µM PCCP^−, currents after 1 min GABA): leftward shift | IC50 [1, 18]: 2600 nM and 2580 nM | Effect of MTSET^+ + GABA treatment on the affinity for PCCP^− ([1]; wild type, treatment applied for 1 min): no effect | IC50 [2]: 2630 ± 310 nM | Change in % inhibition after MTSET^+ + GABA treatment [3]: significant increase | IC50 [3]: 62200 ± 22400 nM | IC50 [4]: 850 ± 460 nM | Change in % inhibition after MTSET^+ + GABA treatment [5]: significant increase | IC50 [6]: 46400 ± 7250 nM | Change in ratio of % inhibition after/before MTSET^+ treatment in the absence of GABA [7]: significant increase | Change in % inhibition after MTSET^+ + GABA treatment ([7]; printed α1T263Cβ2γ2, 5 mM MTSET^+ + 100 µM GABA, inhibitor at about IC50): significant increase | Change in % inhibition after MTSET^+ + GABA treatment [8]: significant increase | IC50 [8, 19]: 3150 ± 480 nM | Change in % inhibition after MTSET^+ + GABA treatment [9]: significant increase | IC50 [9, 19]: 770 ± 110 nM | IC50 [10]: 12500 ± 4800 nM | IC50 [11]: 710 ± 280 nM | Inhibition by PCCP^− [12]: similarly inhibited | Inhibition by PCCP^− [13]: similarly inhibited | IC50 [14]: ~100000 nM | Reduction in sensitivity (difference in IC50) between wild type and mutant receptors [15]: about 2 fold | Concentration inducing a current in non-injected oocytes [16]: ≥ 10 µM | Prevention of the MTSET^+ + GABA induced change in inhibitor sensitivity [17]: could be prevented

picrotoxin [reference compound]
IC50 [1, 18]: 2020 ± 890 nM | Change in % inhibition after MTSET^+ + GABA treatment [3]: significant decrease | IC50 [3]: 740 ± 360 nM | IC50 ([4]; α1T260C mutant, GABA EC10, −80 mV, before MTSET^+ treatment): 1310 ± 410 nM | Change in % inhibition after MTSET^+ + GABA treatment ([5]; α1T260C mutant, 5 mM MTSET^+ + 100 µM GABA, inhibitor at about IC50): significant decrease | Reduction in sensitivity (difference in IC50) between wild type and mutant receptors [15]: 7 fold | Prevention of the MTSET^+ + GABA induced change in inhibitor sensitivity [17]: could not be prevented
